The assay concerns the target T1, human μ-opiate receptor (Homo sapiens, UniProt P35372).
T1 construct: purchased Nen company, Zaventem, Belgium RB-HOM; host or cells: CHO-K1 cells (membrane preparation)
As to the kind of experiment: Affinity for the human μ-opiate receptor ([3H]-naloxone displacement, SPA, CHO-K1 membrane preparation). Conditions: test substance 1 μmole/l, displacement of 1 nmole/l [3H]-naloxone, percentage inhibition of the specific binding; for inhibition at 1 µM: read-out: μ-opioid receptor, % inhibition [1 μM]. Summed up: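 [3H]-naloxone (1 nmol/l) displacement by SPA with WGA beads, using membranes of CHO-K1 cells expressing the receptor, in 50 mmol/l Tris-HCl with 0.05% azide and 0.06% BSA; 90 min at room temperature. Non-specific binding defined with 25 μmol/l naloxone. Value is % inhibition of specific binding at 1 μmol/l test compound.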

T1 sequence (P35372 whole entry): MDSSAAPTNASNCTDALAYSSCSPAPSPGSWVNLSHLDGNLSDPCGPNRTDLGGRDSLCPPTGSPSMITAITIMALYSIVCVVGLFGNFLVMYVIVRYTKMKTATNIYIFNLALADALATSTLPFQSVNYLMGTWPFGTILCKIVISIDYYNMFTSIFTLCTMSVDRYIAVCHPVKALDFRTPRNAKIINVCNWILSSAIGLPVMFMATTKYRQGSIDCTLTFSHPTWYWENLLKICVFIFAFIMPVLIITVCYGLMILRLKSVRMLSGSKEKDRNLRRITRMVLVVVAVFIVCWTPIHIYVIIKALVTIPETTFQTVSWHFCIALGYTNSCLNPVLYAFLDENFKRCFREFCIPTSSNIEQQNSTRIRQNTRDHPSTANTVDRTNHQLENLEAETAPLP

In the case of `CCN(CC)c1oc(C(CC2CCC(C(c3ccc(F)cc3)N(C)C)CC2)N(C)c2ccccc2)nc1Cc1ccccc1` (centres unmarked) [compound 103, {4-benzyl-2-[2-{4-[dimethylamino-(4-fluorophenyl)-methyl]-cyclohexyl}-1-(methylphenylamine)-ethyl]-oxazol-5-yl}-diethylamine], the “μ-opioid receptor, % inhibition [1 μM]” value turned out to be 79%.
Regarding `CN(C)C(c1ccc(F)cc1)C1CCC(CC(c2nc(Cc3ccccc3)c(N3CCSCC3)o2)N(C)c2ccccc2)CC1` (centres unmarked) [compound 104, (1-(4-benzyl-5-thiomorpholin-4-yl-oxazol-2-yl)-2-{4-[dimethylamino-(4-fluorophenyl)-methyl]-cyclohexyl}-ethyl)-methylphenylamine], the inhibition – broadly, the change of the read-out against control, counted positive when it falls – at 1 µM was determined as 89%.
As for `CC1CCCN(c2oc(C(CC3CCC(C(c4ccc(F)cc4)N(C)C)CC3)N(C)c3ccccc3)nc2Cc2ccccc2)C1` (centres unmarked) [compound 105, (1-[4-benzyl-5-(3-methylpiperidin-1-yl)-oxazol-2-yl]-2-{4-[dimethylamino-(4-fluorophenyl)-methyl]-cyclohexyl}-ethyl)-methylphenylamine], the inhibition at 1 µM turned out to be 71%.
The same measure, in the same setting: the same measure for `CC1CCCN(c2oc(C(CC3CCC(C(c4ccc(F)cc4)N(C)C)CC3)N3CCN(Cc4ccccc4)CC3)nc2Cc2ccccc2)C1` (centres unmarked) [compound 106, [{4-[2-[4-benzyl-5-(3-methylpiperidin-1-yl)-oxazol-2-yl]-2-(4-benzyl-piperazin-1-yl)-ethyl]-cyclohexyl}-(4-fluorophenyl)-methyl]-dimethylamine]: 61%; for `CC1CC(C)CN(c2oc(C(CC3CCC(C(c4cccs4)N(C)C)CC3)N3CCCCC3)nc2Cc2ccccc2)C1` (centres unmarked) [compound 107, [(4-{2-[4-benzyl-5-(3,5-dimethylpiperidin-1-yl)-oxazol-2-yl]-2-piperidin-1-yl-ethyl}-cyclohexyl)-thiophen-2-yl-methyl]-dimethylamine]: 84%.
Still for that read-out and setting: the same measure for `CN(CCc1ccccc1)c1oc(C(CC2CCC(C(c3cccs3)N(C)C)CC2)N2CCCCC2)nc1Cc1ccccc1` (centres unmarked) [compound 108, (4-benzyl-2-{2-[4-(dimethylaminothiophen-2-yl-methyl)-cyclohexyl]-1-piperidin-1-yl-ethyl}-oxazol-5-yl)-methylphenethylamine]: 88%; for `CCN(CC)c1oc(C(CC2CCC(C(c3cccs3)N(C)C)CC2)N2CCCCC2)nc1Cc1ccccc1` (centres unmarked) [compound 109, (4-benzyl-2-{2-[4-(dimethylaminothiophen-2-yl-methyl)-cyclohexyl]-1-piperidin-1-yl-ethyl}-oxazol-5-yl)-diethylamine]: 98%; for `CN(C)C(c1cccs1)C1CCC(CC(c2nc(Cc3ccccc3)c(N3CCSCC3)o2)N2CCCCC2)CC1` (centres unmarked) [compound 110, ({4-[2-(4-benzyl-5-thiomorpholin-4-yl-oxazol-2-yl)-2-piperidin-1-yl-ethyl]-cyclohexyl}-thiophen-2-yl-methyl)-dimethylamine]: 97%.
Still for that read-out and setting: the figure for `CC1CCCN(c2oc(C(CC3CCC(C(c4cccs4)N(C)C)CC3)N3CCCCC3)nc2Cc2ccccc2)C1` (centres unmarked) [compound 111, [(4-{2-[4-benzyl-5-(3-methylpiperidin-1-yl)-oxazol-2-yl]-2-piperidin-1-yl-ethyl}-cyclohexyl)-thiophen-2-yl-methyl]-dimethylamine] is 92%; for `CCN(CC)C(CC1CCC(C(c2cccs2)N(C)C)CC1)c1nc(Cc2ccccc2)c(N2CC(C)CC(C)C2)o1` (centres unmarked) [compound 112, {1-[4-benzyl-5-(3,5-dimethylpiperidin-1-yl)-oxazol-2-yl]-2-[4-(dimethylamino-thiophen-2-yl-methyl)-cyclohexyl]-ethyl}-diethylamine] it is 89%.
Turning to `CCN(CC)C(CC1CCC(C(c2cccs2)N(C)C)CC1)c1nc(Cc2ccccc2)c(N(C)CCc2ccccc2)o1` (centres unmarked) [compound 113, (4-benzyl-2-{1-diethylamino-2-[4-(dimethylaminothiophen-2-yl-methyl)-cyclohexyl]-ethyl}-oxazol-5-yl)-methylphenethylamine], the inhibition at 1 µM was found to be 97%.

The values above are taken from patent publication US7608619B2, “Substituted oxazole compounds with analgesic activity” (Gruenenthal GmbH, priority 2005, dated 2009).
